Laboratory results published in patent US20110124600A1, “Use of Dopamine partial agonists for treament of the restless leg syndrome and corresponding pharmaceutical preparation” (priority 2002, published 2011).
Entries after “also recorded” stand apart in the source; their conditions may differ.

Tests used:
[1] = system: restless leg syndrome (RLS) patients; conditions: prior art clinical studies, cited from earlier work; for therapeutic effectiveness in RLS: levodopa perorally in the evening, 100 to 600 mg
[2] = system: restless leg syndrome (RLS) patients; experiment: Oral therapy of RLS patients with terguride (patient histories); type: in vivo, human
Text: The invention is explained in more detail below based on examples in the form of patient histories.

[3] = cited from earlier work; for plasma half-life: in vivo
[4] = system: sleeping pattern, REM phases; experiment: Effect of oral terguride on sleeping pattern / sleep profile; type: in vivo, human; conditions: 0.5 mg p.o. up to 50 mg
Protocol: A dosage of 0.5-2.5 mg is preferred. In the therapy of RLS, terguride in […] dosages apparently acts as a partial agonist, its acting especially on RLS symptoms as a complete agonist, but has little or no effect on the other intact dopaminergic control circuits that control vomiting, orthostasis and the sleep profile. Thus, there is no need to specially change the dosage with a view to side effects. At the same time, however, the desired effect begins very quickly, which is very useful if RLS symptoms occur in the evening, and leads to the patient being unable to fall asleep. Finally, if a longer duration of action is desirable, the dosage of 0.5, 1 mg or even higher can be increased without disturbing the sleep profile.

N[C@@H](Cc1ccc(O)c(O)c1)C(=O)O [Levodopa]
tolerance / side effects in RLS therapy [1]: generally well tolerated | therapeutic effectiveness in RLS [1]: brief effectiveness

CCCN[C@H]1CCc2nc(N)sc2C1 [Pramipexol]
therapeutic effectiveness in RLS [1]: almost complete suppression of symptoms

CCCN(CCC)CCc1cccc2c1CC(=O)N2 [Ropinirole]
tolerance / side effects in RLS therapy [1]: fewer side effects | therapeutic effectiveness in RLS [1]: less effective

OC(CCN1CCCCC1)(c1ccccc1)C1CC2C=CC1C2 (stereo not shown) [biperiden]
effect of previous treatment on RLS ([2]; Patient 2, previous treatment): little effect

CC(C)C[C@H]1C(=O)N2CCC[C@H]2[C@]2(O)O[C@](NC(=O)[C@@H]3C=C4c5cccc6[nH]c(Br)c(c56)C[C@H]4N(C)C3)(C(C)C)C(=O)N12 [bromocriptine]
share of perorally administered dose reaching systemic blood circulation ([3]; peroral): 6%

C=CCN1C[C@H](C(=O)N(CCCN(C)C)C(=O)NCC)C[C@@H]2c3cccc4[nH]cc(c34)C[C@H]21 [cabergoline]
plasma half-life [3]: more than 40 hours

NC(=O)N1c2ccccc2C=Cc2ccccc21 [carbamazepine]
success of previous RLS treatments ([2]; Patient 3): only moderately successful | therapeutic effectiveness in RLS [1]: especially effective in the control of painful RLS symptoms

NCC1(CC(=O)O)CCCCC1 [gabapentin]
therapeutic effectiveness in RLS [1]: especially effective in the control of painful RLS symptoms

[Mg+2] [magnesium]
success of previous RLS treatments ([2]; Patient 3): only moderately successful

CCCN1C[C@H](CSC)C[C@@H]2c3cccc4[nH]cc(c34)C[C@H]21 [pergolide]
course of RLS after switch from terguride ([2]; Patient 2, later switched to pergolide): no deterioration | plasma half-life [3]: more than 27 hours

CCN(CC)C(=O)N[C@H]1C[C@@H]2c3cccc4[nH]cc(c34)C[C@H]2N(C)C1 [terguride]
Epworth scale ([2]; Patient 1, daily dosage 1.5 mg orally): 12 | side effects ([2]; Patient 1, daily dosage 1.5 mg orally, long-term therapy): no side effects | improvement of RLS ([2]; Patient 2, familial RLS, 1 mg orally): very distinct improvement | side effects ([2]; Patient 2, 1 mg / 0.5 mg orally): no side effects | effectiveness in RLS ([2]; Patient 2, further therapy with 0.5 mg): partial effectiveness | course of RLS in withdrawal trial ([2]; Patient 2, withdrawal of terguride): immediate deterioration | success of RLS treatment ([2]; Patient 3 (person two), 1 mg orally for 3 months): very good success | side effects ([2]; Patient 3, 1 mg orally for 3 months): no side effects | effectiveness on renewed use after stopping when RLS symptoms recurred ([2]; compared with first administration): same effectiveness | tolerance in treatment of RLS ([2]; general statement): very good tolerance | effectiveness in oral therapy of RLS ([2]; oral, general statement): exceptionally effective; also recorded: great effectiveness | adverse effect on REM phases [4]: no adverse effect | adverse effects on the sleeping pattern [4]: no adverse effects whatsoever

Cc1ccc(-c2nc3ccc(C)cn3c2CC(=O)N(C)C)cc1 [zolpidem]
success of previous RLS treatments ([2]; Patient 3): only moderately successful
